In patent publication US7576222B2, “Alkynyl-containing tryptophan derivative inhibitors of TACE/matrix metalloproteinase” (priority 2004, dated 2009) one finds IC50 and inhibition data, which are given here for 25 compounds.

The structures appear in SMILES notation.

For one assay, the target named is T1, catalytic domain of the recombinant TACE protein (Homo sapiens, UniProt P78536).
T1 construct: The catalytic domain of the recombinant TACE protein was expressed and purified; made in house
T1 sequence (P78536 223-474 limits assumed): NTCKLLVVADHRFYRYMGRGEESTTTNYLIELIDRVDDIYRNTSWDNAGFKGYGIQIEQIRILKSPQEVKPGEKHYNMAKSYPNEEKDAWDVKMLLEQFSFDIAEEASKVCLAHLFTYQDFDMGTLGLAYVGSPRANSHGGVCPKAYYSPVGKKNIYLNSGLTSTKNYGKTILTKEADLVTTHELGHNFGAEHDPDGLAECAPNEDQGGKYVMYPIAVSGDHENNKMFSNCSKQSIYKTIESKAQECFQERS
As to the kind of experiment: TACE FRET assay using TACE cat.
Details: not given
Type of assay: biochemical. In short, it runs like this:
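Initial fluorescence rate of Abz-[sequence]-Dpa pro-TNF-α peptide cleavage (substrate from 2 mM stock) read after adding substrate to enzyme (1 ug/ml) preincubated 10 min, room temperature, with inhibitor.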
Turning to `CC#CCOc1ccc(S(=O)(=O)N[C@@H](Cc2c[nH]c3cc(C)ccc23)C(=O)O)cc1` [Example 8, N-{[4-(but-2-ynyloxy)phenyl]sulfonyl}-6-methyltryptophan], the IC50 – broadly, the point on the concentration scale where inhibition reaches its midpoint – is 1570 nM.

On to `CC#CCOc1ccc(S(=O)(=O)N[C@@H](Cc2c(C)n(Cc3ccccc3C(F)(F)F)c3ccc(OC)cc23)C(=O)O)cc1` [Example 193, N-{[4-(but-2-ynyloxy)phenyl]sulfonyl}-5-methoxy-2-methyl-1-[2-(trifluoromethyl)benzyl]tryptophan], for which the IC50 amounted to 450 nM.

As to `CC#CCOc1ccc(S(=O)(=O)N[C@@H](Cc2cn(CC3CCCCC3)c3ccc(OC)cc23)C(=O)O)cc1` [Example 70, N-{[4-(but-2-ynyloxy)phenyl]sulfonyl}-1-(cyclohexylmethyl)-5-methoxytryptophan], the IC50 was 1870 nM.

As to `CC#CCOc1ccc(S(=O)(=O)N[C@@H](Cc2cn(Cc3ccccc3F)c3ccc(OC)cc23)C(=O)O)cc1` [Example 58, N-{[4-(but-2-ynyloxy)phenyl]sulfonyl}-1-(2-fluorobenzyl)-5-methoxytryptophan], the IC50 came out at 2240 nM.

For the compound `CC#CCOc1ccc(S(=O)(=O)N[C@@H](Cc2c(C)n(Cc3cccc(C#N)c3)c3ccc(OC)cc23)C(=O)O)cc1` [Example 204, N-{[4-(but-2-ynyloxy)phenyl]sulfonyl}-1-(3-cyanobenzyl)-5-methoxy-2-methyltryptophan], the IC50 was 480 nM.

The assay is the same for the next values; noted with them: TACE FRET assay, catalytic domain of recombinant TACE; read-out: TACE IC50.
As to `CC#CCOc1ccc(S(=O)(=O)N[C@H](Cc2cn(Cc3cc(OC)cc(OC)c3)c3ccccc23)C(=O)O)cc1` [Example 36, N-{[4-(but-2-ynyloxy)phenyl]sulfonyl}-1-(3,5-dimethoxybenzyl)-D-tryptophan], the IC50 worked out at 980 nM.

As to `CC#CCOc1ccc(S(=O)(=O)N[C@H](Cc2cn(Cc3cccc(C(F)(F)F)c3)c3ccccc23)C(=O)O)cc1` [Example 40, N-{[4-(but-2-ynyloxy)phenyl]sulfonyl}-1-[3-(trifluoromethyl)benzyl]-D-tryptophan], the IC50 stood at 2300 nM.

Turning to `CC#CCOc1ccc(S(=O)(=O)N[C@H](Cc2cn(Cc3ccc(C)cc3)c3ccccc23)C(=O)O)cc1` [Example 26, N-{[4-(but-2-ynyloxy)phenyl]sulfonyl}-1-(4-methylbenzyl)-D-tryptophan], the IC50 was 3590 nM.

For the compound `C=CCOc1ccc(Cn2cc(C[C@@H](NS(=O)(=O)c3ccc(OCC#CC)cc3)C(=O)O)c3ccccc32)cc1` [Example 216, 1-[4-(allyloxy)benzyl]-N-{[4-(but-2-ynyloxy)phenyl]sulfonyl}-D-tryptophan], the IC50 was determined as 540 nM.

The same assay, now with this note: read-out: TACE Inhibition (%).
As for `CC#CCOc1ccc(S(=O)(=O)N[C@@H](Cc2cn(Cc3ccc(OC)cc3)c3ccc(Cl)cc23)C(=O)O)cc1` [Example 76, N-{[4-(but-2-ynyloxy)phenyl]sulfonyl}-5-chloro-1-(4-methoxybenzyl)tryptophan], the inhibition (as a rule, the drop in the measured response relative to a control, in per cent) at 1 µM worked out at 18.3%.

On to `CC#CCOc1ccc(S(=O)(=O)N[C@H](Cc2cn(Cc3ccc(OCC)cc3)c3ccccc23)C(=O)O)cc1` [Example 215, N-{[4-(but-2-ynyloxy)phenyl]sulfonyl}-1-(4-ethoxybenzyl)-D-tryptophan], for which the inhibition at 1 µM came out at 69.5%.

`CC#CCOc1ccc(S(=O)(=O)N[C@@H](Cc2cn(Cc3ccc(C(F)(F)F)cc3)c3ccc(C(=O)O)cc23)C(=O)O)cc1` [Example 113, N-{[4-(but-2-ynyloxy)phenyl]sulfonyl}-5-carboxy-1-[4-(trifluoromethyl)benzyl]tryptophan]: the inhibition at 1 µM is -2.04%.

Consider `CC#CCOc1ccc(S(=O)(=O)N[C@@H](Cc2cn(CC3CCC3)c3ccc(C(=O)O)cc23)C(=O)O)cc1` [Example 131, N-{[4-(but-2-ynyloxy)phenyl]sulfonyl}-5-carboxy-1-(cyclobutylmethyl)tryptophan], for which the inhibition at 1 µM was -1.21%.

As to `CC#CCOc1ccc(S(=O)(=O)N[C@@H](Cc2cn(Cc3ccc(Cl)cc3)c3ccc(Cl)cc23)C(=O)O)cc1` [Example 81, N-{[4-(but-2-ynyloxy)phenyl]sulfonyl}-5-chloro-1-(4-chlorobenzyl)tryptophan], the inhibition at 1 µM turned out to be 13.9%.

In the case of `CC#CCOc1ccc(S(=O)(=O)N[C@@H](Cc2c(C)n(Cc3ccc(Cl)cc3)c3ccccc23)C(=O)O)cc1` [Example 156, N-{[4-(but-2-ynyloxy)phenyl]sulfonyl}-1-(4-chlorobenzyl)-2-methyltryptophan], the inhibition at 1 µM was found to be 43.3%.

Take `CC#CCOc1ccc(S(=O)(=O)N[C@@H](Cc2cn(Cc3ccc(OC(F)(F)F)cc3)c3ccc(C#N)cc23)C(=O)O)cc1` [Example 140, N-{[4-(but-2-ynyloxy)phenyl]sulfonyl}-5-cyano-1-[4-(trifluoromethoxy)benzyl]tryptophan]: the inhibition at 1 µM came out at 16%.

With `CC#CCOc1ccc(S(=O)(=O)N[C@@H](Cc2cn(Cc3cccc(C)c3)c3ccc(C(=O)O)cc23)C(=O)O)cc1` [Example 105, N-{[4-(but-2-ynyloxy)phenyl]sulfonyl}-5-carboxy-1-(3-methylbenzyl)tryptophan], the inhibition at 1 µM is 11%.

`CC#CCOc1ccc(S(=O)(=O)N[C@@H](Cc2cn(Cc3ccc(Cl)cc3)c3ccc(C(=O)O)cc23)C(=O)O)cc1` [Example 119, N-{[4-(but-2-ynyloxy)phenyl]sulfonyl}-5-carboxy-1-(4-chlorobenzyl)tryptophan]: the inhibition at 1 µM was 11.7%.

On to `CC#CCOc1ccc(S(=O)(=O)N[C@@H](Cc2cn(Cc3ccccc3C)c3ccc(OC)cc23)C(=O)O)cc1` [Example 49, N-{[4-(but-2-ynyloxy)phenyl]sulfonyl}-5-methoxy-1-(2-methylbenzyl)tryptophan], for which the inhibition at 1 µM amounted to 38.9%.

For the compound `CC#CCOc1ccc(S(=O)(=O)N[C@@H](Cc2cn(Cc3ccc(C)cc3)c3ccc(C(=O)O)cc23)C(=O)O)cc1` [Example 106, N-{[4-(but-2-ynyloxy)phenyl]sulfonyl}-5-carboxy-1-(4-methylbenzyl)tryptophan], the inhibition at 1 µM was found to be 5.53%.

In the case of `CC#CCOc1ccc(S(=O)(=O)N[C@@H](Cc2c(C)n(Cc3ccc(Cl)cc3)c3ccc(Cl)cc23)C(=O)O)cc1` [Example 96, N-{[4-(but-2-ynyloxy)phenyl]sulfonyl}-5-chloro-1-(4-chlorobenzyl)-2-methyltryptophan], the inhibition at 1 µM worked out at 56.5%.

As for `CC#CCOc1ccc(S(=O)(=O)N[C@@H](Cc2c(C)n(Cc3ccc(OC)cc3)c3ccc(OC)cc23)C(=O)O)cc1` [Example 191, N-{[4-(but-2-ynyloxy)phenyl]sulfonyl}-5-methoxy-1-(4-methoxybenzyl)-2-methyltryptophan], the inhibition at 1 µM was determined as 77.5%.

Take `CC#CCOc1ccc(S(=O)(=O)N[C@@H](Cc2cn(Cc3ccccc3OC)c3ccc(C#N)cc23)C(=O)O)cc1` [Example 137, N-{[4-(but-2-ynyloxy)phenyl]sulfonyl}-5-cyano-1-(2-methoxybenzyl)tryptophan]: the inhibition at 1 µM worked out at 12.1%.

Consider `CC#CCOc1ccc(S(=O)(=O)N[C@@H](Cc2cn(Cc3ccc(F)cc3)c3ccc(C(=O)O)cc23)C(=O)O)cc1` [Example 117, N-{[4-(but-2-ynyloxy)phenyl]sulfonyl}-5-carboxy-1-(4-fluorobenzyl)tryptophan], for which the inhibition at 1 µM was found to be 10.9%.

As for `CC#CCOc1ccc(S(=O)(=O)N[C@@H](Cc2cn(Cc3cccc(F)c3)c3ccc(Cl)cc23)C(=O)O)cc1` [Example 80, N-{[4-(but-2-ynyloxy)phenyl]sulfonyl}-5-chloro-1-(3-fluorobenzyl)tryptophan], the inhibition at 1 µM came out at 27.1%.
